This test has as its system 494315-158-R-J1-PDC complex spheroid growth, percent test/control. Nature of the test: Anticancer human tumor 494315-158-R-J1-PDC patient-derived soft tissue sarcoma cell line growth inhibition [Asc]. To be noted: for viability, T/C: stronger effect = lower value. The method in brief:
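Tumor cells were grown as complex spheroids with human endothelial cells (HUVEC) and human mesenchymal stem cells as stroma. Agents were tested alone and in combination, in half-log steps down from the clinical Cmax, or from 10 microM where Cmax was unknown.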

Values joined by “and” are separate entries in the source; they are usually repeats but may differ in a detail not shown here. Equal values may be shown once. Where only a bound is given, the exact number is not on record here.
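Further: compound exposure lasted seven days after spheroids formed for three days.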

One may read the IC50 as the concentration at which inhibition is half-maximal. Broadly, the viability, T/C is the ratio of treated to control. With `C#Cc1c(F)ccc2cc(O)cc(-c3ncc4c(N5CC6CCC(C5)N6)nc(OCC56CCCN5CC(F)C6)nc4c3F)c12` (stereo not drawn) + Cc1c(S(C)(=O)=O)c(-c2cc(F)cc(N3CCN(c4ccc(NS(=O)(=O)c5ccc(NC(CCN6CCC(C(=O)OCCCP(=O)(O)O)CC6)CSc6ccccc6)c(S(=O)(=O)C(F)(F)F)c5)cc4)CC3)c2)c(-c2ccc(Cl)cc2)n1C(C)C, the IC50 (curve of first compound, second compound 0.1 µM) was > 10 µM; the IC50 (curve of first compound, second compound 0.316 µM) was > 10 µM; the IC50 (curve of first compound, second compound 1 µM) was > 10 µM; the IC50 (curve of first compound, second compound 3.16 µM) worked out at 4.04 µM; the IC50 (curve of first compound, second compound 10 µM) is > 10 µM. In addition, the viability, T/C was 82.8% (second compound 0.1 µM, first compound 0.0316 µM); 89.9% (second compound 0.1 µM, first compound 0.1 µM); 77.2% (second compound 0.1 µM, first compound 0.316 µM); 88.6% (second compound 0.1 µM, first compound 1 µM); 80.4% (second compound 0.1 µM, first compound 3.16 µM); 59.8% (second compound 0.1 µM, first compound 10 µM). Also, the viability, T/C by setting is: (second compound 0.316 µM, first compound 0.0316 µM) 84.9%; (second compound 0.316 µM, first compound 0.1 µM) 74.8%; (second compound 0.316 µM, first compound 0.316 µM) 74.8%; (second compound 0.316 µM, first compound 1 µM) 72.1%; (second compound 0.316 µM, first compound 3.16 µM) 71.9%; (second compound 0.316 µM, first compound 10 µM) 50.7%. For the same compound, the viability, T/C is 61.6% (second compound 1 µM, first compound 0.0316 µM); 78.1% (second compound 1 µM, first compound 0.1 µM); 72.8% (second compound 1 µM, first compound 0.316 µM); 69.2% (second compound 1 µM, first compound 1 µM); 71.1% (second compound 1 µM, first compound 3.16 µM); 51.4% (second compound 1 µM, first compound 10 µM). The viability, T/C runs as follows: (second compound 3.16 µM, first compound 0.0316 µM) 51.9%; (second compound 3.16 µM, first compound 0.1 µM) 57.5%; (second compound 3.16 µM, first compound 0.316 µM) 65.7%; (second compound 3.16 µM, first compound 1 µM) 58.9%; (second compound 3.16 µM, first compound 3.16 µM) 51.5%; (second compound 3.16 µM, first compound 10 µM) 37.6%. The viability, T/C is, setting by setting: (second compound 10 µM, first compound 0.0316 µM) 74.8%; (second compound 10 µM, first compound 0.1 µM) 78.8%; (second compound 10 µM, first compound 0.316 µM) 88.2%; (second compound 10 µM, first compound 1 µM) 81.2%; (second compound 10 µM, first compound 3.16 µM) 81.3%; (second compound 10 µM, first compound 10 µM) 55.5%.
For the compound `NC(=O)C(=Cn1cnc(-c2cc(C(F)(F)F)cc(C(F)(F)F)c2)n1)c1cncnc1`, the viability, T/C was 88.9% and 102% and 89.1% (compound 0.000949 µM); 93.4% and 99.6% and 101% (compound 0.003 µM); 79.4% and 90.6% and 81.3% (compound 0.00949 µM); 73.1% and 71.5% and 74% (compound 0.03 µM); 49.7% and 40.1% and 50.4% (compound 0.0949 µM); 13.5% and 13.7% and 12.4% (compound 0.3 µM). Further, the IC50 (curve of compound) was 0.0942 µM and 0.0659 µM and 0.0944 µM.
Consider `C#Cc1c(F)ccc2cc(O)cc(-c3ncc4c(N5CC6CCC(C5)N6)nc(OCC56CCCN5CC(F)C6)nc4c3F)c12` (stereo not drawn) + CCN1C(C(=O)NC23CCC(C(=O)O)(CC2)CC3)C(c2cccc(Cl)c2F)C2(C(=O)Nc3cc(Cl)ccc32)C12CCCCC2, for which the IC50 is > 10 µM (curve of first compound, second compound 0.03 µM); > 10 µM (curve of first compound, second compound 0.0949 µM); > 10 µM (curve of first compound, second compound 0.3 µM); > 10 µM (curve of first compound, second compound 0.949 µM); > 10 µM (curve of first compound, second compound 3 µM). The viability, T/C by setting is: (second compound 0.03 µM, first compound 0.0316 µM) 94.3%; (second compound 0.03 µM, first compound 0.1 µM) 105%; (second compound 0.03 µM, first compound 0.316 µM) 116%; (second compound 0.03 µM, first compound 1 µM) 94.5%; (second compound 0.03 µM, first compound 3.16 µM) 108%; (second compound 0.03 µM, first compound 10 µM) 94.6%. Besides, the viability, T/C was 89.9% (second compound 0.0949 µM, first compound 0.0316 µM); 80.4% (second compound 0.0949 µM, first compound 0.1 µM); 98.2% (second compound 0.0949 µM, first compound 0.316 µM); 87.4% (second compound 0.0949 µM, first compound 1 µM); 90.5% (second compound 0.0949 µM, first compound 3.16 µM); 71.4% (second compound 0.0949 µM, first compound 10 µM). In addition, the viability, T/C by setting is: (second compound 0.3 µM, first compound 0.0316 µM) 95.1%; (second compound 0.3 µM, first compound 0.1 µM) 102%; (second compound 0.3 µM, first compound 0.316 µM) 102%; (second compound 0.3 µM, first compound 1 µM) 103%; (second compound 0.3 µM, first compound 3.16 µM) 108%; (second compound 0.3 µM, first compound 10 µM) 75.9%. The viability, T/C is 85.1% (second compound 0.949 µM, first compound 0.0316 µM); 100% (second compound 0.949 µM, first compound 0.1 µM); 107% (second compound 0.949 µM, first compound 0.316 µM); 83.8% (second compound 0.949 µM, first compound 1 µM); 110% (second compound 0.949 µM, first compound 3.16 µM); 86.2% (second compound 0.949 µM, first compound 10 µM). For the same compound, the viability, T/C is, setting by setting: (second compound 3 µM, first compound 0.0316 µM) 89.5%; (second compound 3 µM, first compound 0.1 µM) 91.5%; (second compound 3 µM, first compound 0.316 µM) 89%; (second compound 3 µM, first compound 1 µM) 107%; (second compound 3 µM, first compound 3.16 µM) 100%; (second compound 3 µM, first compound 10 µM) 85.6%.
In the case of `C#Cc1c(F)ccc2cc(O)cc(-c3ncc4c(N5CC6CCC(C5)N6)nc(OCC56CCCN5CC(F)C6)nc4c3F)c12` (stereo not drawn), the viability, T/C is, setting by setting: (compound 0.0316 µM) 107% and 98.9% and 87.7%; (compound 0.1 µM) 109% and 102% and 108%; (compound 0.316 µM) 107% and 98.4% and 99.9%; (compound 1 µM) 107% and 104% and 95.3%; (compound 3.16 µM) 120% and 97.1% and 100%; (compound 10 µM) 103% and 86.4% and 91.4%. Moreover, the IC50 (curve of compound) was > 10 µM.
`COc1c(OCCCN2CCOCC2)ccc2c3n(c(=NC(=O)c4cnc(N)nc4)nc12)CCN3`: the viability, T/C (compound 0.00316 µM) is 87.8% and 87% and 82.3%; the viability, T/C (compound 0.01 µM) was 79.6% and 80.4% and 82.8%; the viability, T/C (compound 0.0316 µM) is 56.8% and 58.9% and 54.3%; the viability, T/C (compound 0.1 µM) was 37% and 32% and 34%; the viability, T/C (compound 0.316 µM) is 20.7% and 21.1% and 18%; the viability, T/C (compound 1 µM) was 16.9% and 20.5% and 16.8%. Moreover, the IC50 (curve of compound) is 0.048 µM and 0.046 µM and 0.0441 µM.
Turning to `C=CC(=O)N1CCN(c2nc(=O)n(-c3c(C)ccnc3C(C)C)c3nc(-c4c(O)cccc4F)c(F)cc23)C(C)C1` (stereo not drawn), the viability, T/C is 105% and 116% and 107% (compound 0.0316 µM); 109% and 108% and 91.3% (compound 0.1 µM); 103% and 101% and 104% (compound 0.316 µM); 113% and 112% and 105% (compound 1 µM); 112% and 113% and 101% (compound 3.16 µM); 98.8% and 110% and 109% (compound 10 µM). Where the note is “curve of compound”, the IC50 is > 10 µM.

Values taken from PubChem BioAssay AID1963420 (Molecular Pharmacology Branch, DTP, NCI, 2024).
